“Also recorded” adds a separate entry of the source.
Legend:
Format in all cases: cell-based, human
A38Lg cells = assay: RNA-seq of control (DMSO) and 6AN treated cells, differentially expressed genes
Method: (§1) RNAi experiments were performed with siRNA transfections (Oligofectamine, Life Technologies) using negative control siRNA (Sigma, SIC001) and pre-designed siRNA oligonucleotides against indicated genes in parallel (Sigma, PGD: SASI_Hs02 00334150, CDH2: SASI_Hs01_00153995, TOP2B: SASI_Hs02_00311874). siRNAs against mutant KRAS^G12V (CUACGCCAACAGCUCCAAC) (SEQ ID NO:1) were custom designed. Cells were incubated with siRNAs for 4 days after transfection and harvested. For drug treatments in 2-D, cells were grown to 70-80% confluency and treated for 3 days with 250 uM 6AN or DMSO negative control.
(§2) Tests for statistical significance (two-tailed students t-test) were performed on data collected from technical replicate (performed in parallel at the same time) or biological replicate (performed at different times) experiments as indicated in the figure legends using excel software for western blot densitometry, MTT assays, and tumor measurements. Whole genome bisulfite sequencing and RNA-seq were performed with HiSeq instruments (Illumina) as described in Hansen et al. (Increased methylation variation in epigenetic domains across cancer types. Nat Genet 43, 768-75 (2011)). ChIP assays were performed as previously described for fixed cells with sonication. For ChIP-qPCR, equal amounts of paired input/IP DNA were amplified by real-time PCR (Roche LightCycler96) and fold enrichments calculated. Primer sequences are listed in Supplementary Table 11. […] IP sequencing reads were normalized to their corresponding inputs. Sequencing procedures, bioinformatics methods including domain calls, and statistical analyses are described in detail within the supplementary methods section.
RNA-Seq data processing. 100 bp paired-end HiSeq2000 sequencing reads were aligned against human genome (hg19) by OSA (version 2.0.1) with default parameters. After alignment, only uniquely aligned reads were kept for further analysis. Gene annotation information was downloaded from ENSEMBL (ensembl.com, release 66). Reads count for each gene of all samples were estimated using HTSeq (huber.embl.de/users/anders/HTSeq/doc/overview.html) and then were used to identify differentially expressed (DE) genes using DESeq package. Genes with FDR<0.01 and fold-change>1.5 were considered DE genes.

[1] = tested on: H3K9Me2 and H3K27Ac across CDH2 and TOP2B gene loci; assay: ChIP-qPCR across CDH2 and TOP2B loci
Method: as §2

[2] = tested on: distant metastatic and primary tumor precursor subclones; assay: 3-D matrigel tumor forming assay, distant metastatic subclones
Method: as §1
3-D matrigel assays were adapted from Cheung et al. (Control of alveolar differentiation by the lineage transcription factors GATA6 and HOPX inhibits lung adenocarcinoma metastasis. Cancer Cell 23, 725-38 (2013)). […] Well-formed tumors were then counted and representative photographs taken with an EVOS instrument. 3-D suspension tumorsphere assays were performed with 20,000 starting cells/well in ultra-low attachment 6 well plates as described, and tumors counted/photographed after at least 7 days of tumor growth.

[3] = tested on: distant metastatic subclones; assay: Organotypic tumor forming assay (3D organotypic stromal cultures)
Method: Organotypic tumor forming assays were adapted from Ridky et al. (P.A. Invasive three-dimensional organotypic neoplasia from multiple normal human epithelia. Nat Med 16, 1450-5 (2010)) and Andl et al. (Epidermal growth factor receptor mediates increased cell proliferation, migration, and aggregation in esophageal keratinocytes in vitro and in vivo. J Biol Chem 278, 1824-30 (2003)). Briefly, 6 well permeable transwell plates (Costar 3414) were overlayed with 1 mL type 1 collagen containing 10×DMEM (acellular layer). Human dermal fibroblasts (ATCC) were suspended (12×10^6 cells/mL) in a mixture of ice cold 10×DMEM, 10% FBS, 52.5% collagen, and 17.5% matrigel (cellular layer), thoroughly mixed, and 2 mL/well plated over the acellular layer. The mixture was allowed to partially solidify for approximately 15 minutes at 37° C., followed by triplicate injection of 1×10^6 PDAC (suspended in 20 ul DMEM) cells into the cellular layer. Cells were incubated for 24 hours in fibroblast growth media above and below the inserts to initiate contraction of the discs. […] Discs were harvested, fixed overnight in 10% formalin, […], and stained with H&E. Tumors were photographed and measured with an Olympus BX53 microscope using cellSens Standard software.

[4] = tested on: CDH2 and TOP2B expression; assay: Real-time RT-PCR of CDH2 and TOP2B
Method: Histones were acid extracted as described and western blots performed on 3.5 ug histones, which were checked by Ponceau stains prior to western blot to ensure equal loading. Densitometry was performed with ImageJ software. RNA was extracted with Trizol reagent (Life Technologies) and isopropanol precipitated. Genomic DNA was purified with MasterPure DNA extraction reagents (Epicenter). Immunohistochemistry, H&E staining, and immunofluorescence on formalin-fixed, paraffin-embedded (FFPE) tissue microarray sections (TMAs) were performed according to standard procedures.

[5] = genes down in A38Lg vs A38Per and down in 6AN vs DMSO treated A38Lg, RNA-seq DE genes
[6] = genes down in A38Lg vs A38Per and up in 6AN vs DMSO treated A38Lg, RNA-seq DE genes
[7] = genes recurrently down vs. A38Per and down in 6AN treated A38Lg cells, out of all 6AN down genes
[8] = genes recurrently down vs. A38Per and down in 6AN treated A38Lg cells, out of all recurrent down genes
[9] = genes recurrently down vs. A38Per and up in 6AN treated A38Lg cells, out of all 6AN up genes
[10] = genes recurrently down vs. A38Per and up in 6AN treated A38Lg cells, out of all recurrent down genes
[11] = genes recurrently up across all samples vs. A38Per and down in 6AN vs. DMSO treated A38Lg cells, out of all 6AN down genes
[12] = genes recurrently up vs. A38Per and down in 6AN treated A38Lg cells, out of all recurrent up genes
[13] = genes recurrently up vs. A38Per and up in 6AN treated A38Lg cells, out of all recurrent up genes
[14] = genes up in A38Lg vs A38Per and down in 6AN vs DMSO treated A38Lg, RNA-seq DE genes
[15] = genes up in A38Lg vs A38Per and up in 6AN vs DMSO treated A38Lg, RNA-seq DE genes

Compound: NC(=O)c1ccc(N)nc1 [6AN, 6-aminonicotinamide]
- Coregulated/6AN down (38Lg down/6AN down): coregulated genes / all 6AN down genes (A38Lg cells; [5]): 277/1968
- Coregulated/38Lg down (38Lg down/6AN down): coregulated genes / all 38Lg down genes (A38Lg cells; [5]): 277/4402
- Coregulated/6AN down (38Lg down/6AN down), percent (A38Lg cells; genes down in A38Lg vs A38Per and down in 6AN vs DMSO treated A38Lg, share of 6AN down genes): (14%)
- Coregulated/38Lg down (38Lg down/6AN down), percent (A38Lg cells; genes down in A38Lg vs A38Per and down in 6AN vs DMSO treated A38Lg, share of 38Lg down genes): (0.06%)
- Coregulated/6AN up (38Lg down/6AN up): coregulated genes / all 6AN up genes (A38Lg cells; [6]): 915/2192
- Coregulated/38Lg down (38Lg down/6AN up): coregulated genes / all 38Lg down genes (A38Lg cells; [6]): 915/4402
- Coregulated/6AN up (38Lg down/6AN up), percent (A38Lg cells; genes down in A38Lg vs A38Per and up in 6AN vs DMSO treated A38Lg, share of 6AN up genes): (42%)
- Coregulated/38Lg down (38Lg down/6AN up), percent (A38Lg cells; genes down in A38Lg vs A38Per and up in 6AN vs DMSO treated A38Lg, share of 38Lg down genes): (21%)
- Recurrent Down/6AN Down: Coregulated/6AN down (gene count ratio) (A38Lg cells; [7]): 111/1968
- Recurrent Down/6AN Down: Coregulated/6AN down (percent) (A38Lg cells; [7]): (0.06%)
- Recurrent Down/6AN Down: Coregulated/Recurrent down (gene count ratio) (A38Lg cells; [8]): 111/1842
- Recurrent Down/6AN Down: Coregulated/Recurrent down (percent) (A38Lg cells; [8]): (0.06%)
- Recurrent Down/6AN Up: Coregulated/6AN up (gene count ratio) (A38Lg cells; [9]): 332/2192
- Recurrent Down/6AN Up: Coregulated/6AN up (percent) (A38Lg cells; [9]): (15%)
- Recurrent Down/6AN Up: Coregulated/Recurrent down (gene count ratio) (A38Lg cells; [10]): 332/1842
- Recurrent Down/6AN Up: Coregulated/Recurrent down (percent) (A38Lg cells; [10]): (18%)
- Recurrent Up/6AN Down: Coregulated/6AN down (gene count ratio) (A38Lg cells; [11]): 255/1968
- Recurrent Up/6AN Down: Coregulated/6AN down (percent) (A38Lg cells; [11]): (13%)
- Recurrent Up/6AN Down: Coregulated/Recurrent up (gene count ratio) (A38Lg cells; [12]): 255/891
- Recurrent Up/6AN Down: Coregulated/Recurrent up (percent) (A38Lg cells; [12]): (28.6%)
- Recurrent Up/6AN Up: Coregulated/6AN up (gene count ratio) (A38Lg cells; genes recurrently up vs. A38Per and up in 6AN treated A38Lg cells, out of all 6AN up genes): 82/2192
- Recurrent Up/6AN Up: Coregulated/Recurrent up (gene count ratio) (A38Lg cells; [13]): 82/891
- Recurrent Up/6AN Up: Coregulated/Recurrent up (percent) (A38Lg cells; [13]): (9%)
- Coregulated/6AN down (38Lg up/6AN down): coregulated genes / all 6AN down genes (A38Lg cells; [14]): 1032/1968
- Coregulated/38Lg up (38Lg up/6AN down): coregulated genes / all 38Lg up genes (A38Lg cells; [14]): 1032/4368
- Coregulated/6AN down (38Lg up/6AN down), percent (A38Lg cells; genes up in A38Lg vs A38Per and down in 6AN vs DMSO treated A38Lg, share of 6AN down genes): (52%)
- Coregulated/38Lg up (38Lg up/6AN down), percent (A38Lg cells; genes up in A38Lg vs A38Per and down in 6AN vs DMSO treated A38Lg, share of 38Lg up genes): (24%)
- Coregulated/6AN up (38Lg up/6AN up): coregulated genes / all 6AN up genes (A38Lg cells; [15]): 379/2192
- Coregulated/38Lg up (38Lg up/6AN up): coregulated genes / all 38Lg up genes (A38Lg cells; [15]): 379/4368
- Coregulated/6AN up (38Lg up/6AN up), percent (A38Lg cells; genes up in A38Lg vs A38Per and up in 6AN vs DMSO treated A38Lg, share of 6AN up genes): (17%)
- Coregulated/38Lg up (38Lg up/6AN up), percent (A38Lg cells; genes up in A38Lg vs A38Per and up in 6AN vs DMSO treated A38Lg, share of 38Lg up genes): (0.09%)
- H3K9Me2 across CDH2/TOP2B loci (ChIP-qPCR) ([1]; matched lung metastasis A38Lg): enrichment of H3K9Me2 across both loci; also recorded: induced spreading of H3K9Me2 across the locus
- H3K27Ac over the CDH2 genic region (ChIP-qPCR) ([1]; matched lung metastasis A38Lg): concordant reductions; also recorded: corresponding loss of H3K27Ac
- H3K9Me2 and H3K27Ac enrichments across CDH2/TOP2B loci (ChIP-qPCR), control vs 6AN ([1]; peritoneal subclone A38Per): nearly identical enrichments; also recorded: no effect
- tumor formation in 3D matrigel assays [2]: selectively and strongly blocked tumor formation; also recorded: ablated tumor formation
- tumor formation after injection into 3D organotypic stromal cultures [3]: selectively and strongly blocked tumor formation; also recorded: blocked
- CDH2 expression (RT-PCR) ([4]; distant metastatic subclone A38Lg): selectively repressed
- TOP2B expression (RT-PCR) ([4]; lung metastatic subclone): selectively repressed
